Experimental data as given in patent US7148232B2, “Oxazolo, thiazolo and selenazolo [4,5-c]-quinolin-4-amines and analogs thereof” (3M Innovative Properties Company, priority 1998, dated 2006).
Blank lines part the entries; values can stand above or below the compound they belong to.

Columns and labels:
[1] = tested on: interferon (α); assay: Interferon (α) induction in human cells (in vitro human blood cell system, interferon by bioassay); type: cell-based; settings: human PBM's, 48 hours
[2] = tested on: interferon (α); assay: Cytokine induction in human cells: interferon (α) secreted by PBMCs (ELISA or bioassay); type: cell-based; settings: 18 to 24 hours
Experimental: (§1) An in vitro human blood cell system was used to assess cytokine induction by compounds of the invention.
(§2) Whole blood is collected by venipuncture into EDTA vacutainer tubes from healthy human donors. […] The PBMC suspension is added to 48 well flat bottom sterile tissue culture plates (Costar, Cambridge, Mass. or Becton Dickinson Labware, Lincoln Park, N.J.) containing an equal volume of RPMI complete media containing test compound.
(§3) The compounds are solubilized in dimethyl sulfoxide (DMSO). The DMSO concentration should not exceed a final concentration of 1% for addition to the culture wells.
(§4) The solution of test compound is added at 60 μM to the first well containing RPMI complete and serial 3 fold dilutions are made. The PBMC suspension is then added to the wells in an equal volume, bringing the test compound concentrations to the desired range (0.12 to 30 μM). The final concentration of PBMC suspension is 1.5–2×10^6 cells/mL. The plates are covered with sterile plastic lids, mixed gently and then incubated for 18 to 24 hours at 37° C. in a 5% carbon dioxide atmosphere.
(§5) Following incubation the plates are centrifuged for 5–10 minutes at 1000 rpm (˜200×g) at 4° C. The cell culture supernatant is removed with a sterile polypropylene pipet and transferred to sterile polypropylene tubes. Samples are maintained at −30 to −70° C. until analysis. The samples are analyzed for interferon (α) by either ELISA or bioassay and for tumor necrosis factor (α) by ELISA
Interferon is determined by bioassay using A549 human lung carcinoma cells challenged with encephalomyocarditis. […] Briefly stated the method is as follows: A549 cells are incubated with dilutions of samples or a standard interferon at 37° C. for 24 hours. The incubated cells are then infected with an inoculum of encephalomyocarditis virus. The infected cells are incubated for an additional 24 hours at 37° C. before evaluating for viral cytopathic effect. The viral cytopathic effect is quantified by staining with crystal violet followed by visual scoring of the plates. Results are expressed as alpha reference units/mL based on the value obtained for NIH Human Leukocyte IFN standard.
Interferon (α) concentration is determined by ELISA using a Human Multi-Species kit from PBL Biomedical Laboratories, New Brunswick, N.J. according to the manufacturer's instructions.

[3] = tested on: tumor necrosis factor (α); assay: Cytokine induction in human cells: tumor necrosis factor (α) secreted by PBMCs (ELISA); type: cell-based; settings: 18 to 24 hours
Experimental: as §1, §2, §3, §4, §5
Tumor necrosis factor (α) (TNF) concentration is determined using ELISA kits available from Genzyme, Cambridge, Mass.; R&D Systems, Minneapolis, Minn.; or Pharmingen, San Diego, Calif. according to the manufacturer's instructions.

- melting point: 163 to 165 °C
SMILES: CC(C)c1nc2c(N)nc3ccccc3c2s1 [Example 20, 2-(1-Methyethyl)thiazolo[4,5-c]quinolin-4-amine]
- Interferon (α) Induction in Human Cells ([1]; Dose Concentration 0.01 μg/mL): −
- Interferon (α) Induction in Human Cells ([1]; Dose Concentration 0.05 μg/mL): −
- Interferon (α) Induction in Human Cells ([1]; Dose Concentration 0.10 μg/mL): −
- Interferon (α) Induction in Human Cells ([1]; Dose Concentration 0.50 μg/mL): −
- Interferon (α) Induction in Human Cells ([1]; Dose Concentration 1.0 μg/mL): −
- Interferon (α) Induction in Human Cells ([1]; Dose Concentration 5.0 μg/mL): +
- Interferon (α) Induction in Human Cells ([1]; Dose Concentration 10.0 μg/mL): +
- Interferon (α) Induction in Human Cells ([1]; Dose Concentration 25.0 μg/mL): +
- Interferon (α) Induction in Human Cells ([1]; Dose Concentration 50.0 μg/mL): +
- Interferon (α) Induction ([2]; Dose Concentration 0.12 μM): −
- Interferon (α) Induction ([2]; Dose Concentration 0.37 μM): −
- Interferon (α) Induction ([2]; Dose Concentration 1.11 μM): +
- Interferon (α) Induction ([2]; Dose Concentration 3.33 μM): −
- Interferon (α) Induction ([2]; Dose Concentration 10 μM): −
- Interferon (α) Induction ([2]; Dose Concentration 30 μM): −
- Tumor Necrosis Factor Induction ([3]; Dose Concentration 0.12 μM): −
- Tumor Necrosis Factor Induction ([3]; Dose Concentration 0.37 μM): −
- Tumor Necrosis Factor Induction ([3]; Dose Concentration 1.11 μM): −
- Tumor Necrosis Factor Induction ([3]; Dose Concentration 3.33 μM): +
- Tumor Necrosis Factor Induction ([3]; Dose Concentration 10 μM): +
- Tumor Necrosis Factor Induction ([3]; Dose Concentration 30 μM): +

- melting point: 158 to 159 °C
SMILES: Nc1nc2ccccc2c2sc(CCc3ccccc3)nc12 [Example 24, 2-(2-Phenyl-1-ethyl)thiazolo[4,5-c]quinolin-4-amine]
- Interferon (α) Induction in Human Cells ([1]; Dose Concentration 0.01 μg/mL): −
- Interferon (α) Induction in Human Cells ([1]; Dose Concentration 0.05 μg/mL): −
- Interferon (α) Induction in Human Cells ([1]; Dose Concentration 0.10 μg/mL): −
- Interferon (α) Induction in Human Cells ([1]; Dose Concentration 0.50 μg/mL): −
- Interferon (α) Induction in Human Cells ([1]; Dose Concentration 1.0 μg/mL): −
- Interferon (α) Induction in Human Cells ([1]; Dose Concentration 5.0 μg/mL): −
- Interferon (α) Induction in Human Cells ([1]; Dose Concentration 10.0 μg/mL): +
- Interferon (α) Induction in Human Cells ([1]; Dose Concentration 25.0 μg/mL): +
- Interferon (α) Induction in Human Cells ([1]; Dose Concentration 50.0 μg/mL): +
- Interferon (α) Induction ([2]; Dose Concentration 0.12 μM): −
- Interferon (α) Induction ([2]; Dose Concentration 0.37 μM): −
- Interferon (α) Induction ([2]; Dose Concentration 1.11 μM): −
- Interferon (α) Induction ([2]; Dose Concentration 3.33 μM): −
- Interferon (α) Induction ([2]; Dose Concentration 10 μM): −
- Interferon (α) Induction ([2]; Dose Concentration 30 μM): −
- Tumor Necrosis Factor Induction ([3]; Dose Concentration 0.12 μM): −
- Tumor Necrosis Factor Induction ([3]; Dose Concentration 0.37 μM): −
- Tumor Necrosis Factor Induction ([3]; Dose Concentration 1.11 μM): −
- Tumor Necrosis Factor Induction ([3]; Dose Concentration 3.33 μM): −
- Tumor Necrosis Factor Induction ([3]; Dose Concentration 10 μM): −
- Tumor Necrosis Factor Induction ([3]; Dose Concentration 30 μM): +

- melting point: 190 to 192 °C
SMILES: CCCc1nc2c(N)nc3ccc(N)cc3c2s1 [Example 42, 2-Propylthiazolo[4,5-c]quinolin-4,8-diamine]
- Interferon (α) Induction in Human Cells ([1]; Dose Concentration 0.01 μg/mL): −
- Interferon (α) Induction in Human Cells ([1]; Dose Concentration 0.05 μg/mL): −
- Interferon (α) Induction in Human Cells ([1]; Dose Concentration 0.10 μg/mL): −
- Interferon (α) Induction in Human Cells ([1]; Dose Concentration 0.50 μg/mL): +
- Interferon (α) Induction in Human Cells ([1]; Dose Concentration 1.0 μg/mL): +
- Interferon (α) Induction in Human Cells ([1]; Dose Concentration 5.0 μg/mL): +
- Interferon (α) Induction ([2]; Dose Concentration 0.12 μM): −
- Interferon (α) Induction ([2]; Dose Concentration 0.37 μM): −
- Interferon (α) Induction ([2]; Dose Concentration 1.11 μM): −
- Interferon (α) Induction ([2]; Dose Concentration 3.33 μM): −
- Interferon (α) Induction ([2]; Dose Concentration 10 μM): +
- Interferon (α) Induction ([2]; Dose Concentration 30 μM): −
- Tumor Necrosis Factor Induction ([3]; Dose Concentration 0.12 μM): −
- Tumor Necrosis Factor Induction ([3]; Dose Concentration 0.37 μM): −
- Tumor Necrosis Factor Induction ([3]; Dose Concentration 1.11 μM): +
- Tumor Necrosis Factor Induction ([3]; Dose Concentration 3.33 μM): +
- Tumor Necrosis Factor Induction ([3]; Dose Concentration 10 μM): +
- Tumor Necrosis Factor Induction ([3]; Dose Concentration 30 μM): +

- melting point: 225 to 227 °C
SMILES: Nc1nc2ccccc2c2sc(N3CCOCC3)nc12 [Example 53, 2-(4-Morpholino)thiazolo[4,5-c]quinolin-4-amine]
- Interferon (α) Induction in Human Cells ([1]; Dose Concentration 0.01 μg/mL): −
- Interferon (α) Induction in Human Cells ([1]; Dose Concentration 0.05 μg/mL): −
- Interferon (α) Induction in Human Cells ([1]; Dose Concentration 0.10 μg/mL): −
- Interferon (α) Induction in Human Cells ([1]; Dose Concentration 0.50 μg/mL): −
- Interferon (α) Induction in Human Cells ([1]; Dose Concentration 1.0 μg/mL): −
- Interferon (α) Induction in Human Cells ([1]; Dose Concentration 5.0 μg/mL): −
- Interferon (α) Induction in Human Cells ([1]; Dose Concentration 10.0 μg/mL): −
- Interferon (α) Induction in Human Cells ([1]; Dose Concentration 25.0 μg/mL): +
- Interferon (α) Induction in Human Cells ([1]; Dose Concentration 50.0 μg/mL): +
- Interferon (α) Induction ([2]; Dose Concentration 0.12 μM): −
- Interferon (α) Induction ([2]; Dose Concentration 0.37 μM): −
- Interferon (α) Induction ([2]; Dose Concentration 1.11 μM): −
- Interferon (α) Induction ([2]; Dose Concentration 3.33 μM): −
- Interferon (α) Induction ([2]; Dose Concentration 10 μM): −
- Interferon (α) Induction ([2]; Dose Concentration 30 μM): −
- Tumor Necrosis Factor Induction ([3]; Dose Concentration 0.12 μM): −
- Tumor Necrosis Factor Induction ([3]; Dose Concentration 0.37 μM): −
- Tumor Necrosis Factor Induction ([3]; Dose Concentration 1.11 μM): −
- Tumor Necrosis Factor Induction ([3]; Dose Concentration 3.33 μM): −
- Tumor Necrosis Factor Induction ([3]; Dose Concentration 10 μM): −
- Tumor Necrosis Factor Induction ([3]; Dose Concentration 30 μM): −

- melting point: 136 to 138 °C
SMILES: CCCCc1nc2c(N)nc3cccnc3c2s1 [Example 58, 2-Butylthiazolo[4,5-c][1,5]naphthyridin-4-amine]
- Interferon (α) Induction ([2]; Dose Concentration 0.12 μM): −
- Interferon (α) Induction ([2]; Dose Concentration 0.37 μM): −
- Interferon (α) Induction ([2]; Dose Concentration 1.11 μM): −
- Interferon (α) Induction ([2]; Dose Concentration 3.33 μM): −
- Interferon (α) Induction ([2]; Dose Concentration 10 μM): ±
- Interferon (α) Induction ([2]; Dose Concentration 30 μM): ±
- Tumor Necrosis Factor Induction ([3]; Dose Concentration 0.12 μM): −
- Tumor Necrosis Factor Induction ([3]; Dose Concentration 0.37 μM): +
- Tumor Necrosis Factor Induction ([3]; Dose Concentration 1.11 μM): +
- Tumor Necrosis Factor Induction ([3]; Dose Concentration 3.33 μM): +
- Tumor Necrosis Factor Induction ([3]; Dose Concentration 10 μM): +
- Tumor Necrosis Factor Induction ([3]; Dose Concentration 30 μM): +

- melting point: 135 to 136 °C
SMILES: CCCc1nc2c(N)nc3cccnc3c2s1 [Example 60, 2-Propylthiazolo[4,5-c][1,5]naphthyridin-4-amine]
- Interferon (α) Induction ([2]; Dose Concentration 0.12 μM): −
- Interferon (α) Induction ([2]; Dose Concentration 0.37 μM): −
- Interferon (α) Induction ([2]; Dose Concentration 1.11 μM): −
- Interferon (α) Induction ([2]; Dose Concentration 3.33 μM): −
- Interferon (α) Induction ([2]; Dose Concentration 10 μM): −
- Interferon (α) Induction ([2]; Dose Concentration 30 μM): −
- Tumor Necrosis Factor Induction ([3]; Dose Concentration 0.12 μM): −
- Tumor Necrosis Factor Induction ([3]; Dose Concentration 0.37 μM): ±
- Tumor Necrosis Factor Induction ([3]; Dose Concentration 1.11 μM): +
- Tumor Necrosis Factor Induction ([3]; Dose Concentration 3.33 μM): +
- Tumor Necrosis Factor Induction ([3]; Dose Concentration 10 μM): +
- Tumor Necrosis Factor Induction ([3]; Dose Concentration 30 μM): +

- melting point: 159 to 160 °C
SMILES: CCCc1nc2c(N)nc3cc(Cl)ccc3c2s1 [Example 63, 7-Chloro-2-propylthiazolo[4,5-c]quinolin-4-amine]
- Interferon (α) Induction ([2]; Dose Concentration 0.12 μM): −
- Interferon (α) Induction ([2]; Dose Concentration 0.37 μM): −
- Interferon (α) Induction ([2]; Dose Concentration 1.11 μM): +
- Interferon (α) Induction ([2]; Dose Concentration 3.33 μM): +
- Interferon (α) Induction ([2]; Dose Concentration 10 μM): +
- Interferon (α) Induction ([2]; Dose Concentration 30 μM): −
- Tumor Necrosis Factor Induction ([3]; Dose Concentration 0.12 μM): +
- Tumor Necrosis Factor Induction ([3]; Dose Concentration 0.37 μM): +
- Tumor Necrosis Factor Induction ([3]; Dose Concentration 1.11 μM): +
- Tumor Necrosis Factor Induction ([3]; Dose Concentration 3.33 μM): +
- Tumor Necrosis Factor Induction ([3]; Dose Concentration 10 μM): +
- Tumor Necrosis Factor Induction ([3]; Dose Concentration 30 μM): +

- melting point: 152 to 154 °C
SMILES: CCCc1nc2c(N)nc3cc(OC)ccc3c2s1 [Example 64, 7-Methoxy-2-propylthiazolo[4,5-c]quinolin-4-amine]
- Interferon (α) Induction ([2]; Dose Concentration 0.12 μM): −
- Interferon (α) Induction ([2]; Dose Concentration 0.37 μM): +
- Interferon (α) Induction ([2]; Dose Concentration 1.11 μM): +
- Interferon (α) Induction ([2]; Dose Concentration 3.33 μM): +
- Interferon (α) Induction ([2]; Dose Concentration 10 μM): +
- Interferon (α) Induction ([2]; Dose Concentration 30 μM): +
- Tumor Necrosis Factor Induction ([3]; Dose Concentration 0.12 μM): +
- Tumor Necrosis Factor Induction ([3]; Dose Concentration 0.37 μM): +
- Tumor Necrosis Factor Induction ([3]; Dose Concentration 1.11 μM): +
- Tumor Necrosis Factor Induction ([3]; Dose Concentration 3.33 μM): +
- Tumor Necrosis Factor Induction ([3]; Dose Concentration 10 μM): +
- Tumor Necrosis Factor Induction ([3]; Dose Concentration 30 μM): +
